The values that follow come from EP2818472A1, “Imidazo[4,5-c]pyridine and pyrrolo[3,2-c]pyridine compounds as G-protein-coupled receptor kinase 5 (GRK5) modulators” (Max-Planck-Gesellschaft zur Förderung der Wissenschaften …, priority 2013, dated 2014).

For the test, the system named is beta-TC6 cells. As to the kind of experiment: Insulin HTRF assay (relative activity Ar) in beta-TC6 cells. Particulars: Mus musculus, Beta-TC6, 4 h, insulin HTRF, supernatant of beta-TC6 cells, incubation with test compound at 37°C for 2, 3, 4h; read-out: Ar (relative activity). The test is classed as cell-based, mouse. An outline of the steps: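 beta-TC6 cells (15k/well, seeded 24 or 48 h) washed, then exposed to compound in induction buffer (0.5% DMSO final) for 2, 3 or 4 h at 37°C.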
For the compound `c1ccc(Cn2cnc3cnc(Nc4ccc5c(c4)OCO5)cc32)cc1` [Compound 695, N-(1,3-benzodioxol-5-yl)-1-benzyl-imidazo[4,5-c]pyridin-6-amine], the Emax was 50 to 100%.

Take `COc1ccc(Nc2cc3[nH]c(-c4cncn4C)cc3cn2)cc1OC` [Compound 102, N-(3,4-dimethoxyphenyl)-2-(3-methylimidazol-4-yl)-1H-pyrrolo[3,2-c]pyridin-6-amine]: the Emax is greater than 100%.

In the case of `CNc1nc2cnc(-c3cccnc3)cc2n1Cc1cccnc1` [Compound 563, N-methyl-6-(3-pyridyl)-1-(3-pyridylmethyl)imidazo[4,5-c]pyridin-2-amine], the Emax fell in the range of 50 to 100%.

As to `CNc1nc2cnc(Nc3cccc(C(C)=O)c3)cc2n1CCN1CCOCC1` [Compound 558, 1-[3-[[2-(methylamino)-1-(2-morpholinoethyl)imidazo[4,5-c]pyridin-6-yl]amino]phenyl]ethanone], the Emax was in the range of 50 to 100%.

Turning to `CNc1nc2cnc(Nc3ccc(OC)cc3)cc2n1Cc1ccccc1` [Compound 531, 1-benzyl-N6-(4-methoxyphenyl)-N2-methyl-imidazo[4,5-c]pyridine-2,6-diamine], the Emax lay within 30 to 50%.

Regarding `Cn1c(-c2ccsc2)cc2c(Nc3ccc(O)cc3)nccc21` [Compound 271, 4-[[1-methyl-2-(3-thienyl)pyrrolo[3,2-c]pyridin-4-yl]amino]phenol], the Emax was in the range of 50 to 100%.

Consider `CS(=O)(=O)c1ccc(Nc2cc3c(cn2)ncn3CC2CC2)cc1` [Compound 696, 1-(cyclopropylmethyl)-N-(4-methylsulfonylphenyl)imidazo[4,5-c]pyridin-6-amine], for which the Emax fell in the range of 30 to 50%.

In the case of `CC(=O)Nc1ccc(Nc2cc3c(cn2)nc(-c2ccco2)n3C)cc1` [Compound 708, N-[4-[[2-(2-furyl)-1-methyl-imidazo[4,5-c]pyridin-6-yl]amino]phenyl]acetamide], the Emax is greater than 100%.

On to `COc1ccc(CNc2nc3cnc(Nc4ccc(N5CCN(C)CC5)cc4)cc3n2C)cc1OC` [Compound 605, N2-[(3,4-dimethoxyphenyl)methyl]-1-methyl-N6-[4-(4-methylpiperazin-1-yl)phenyl]imidazo[4,5-c]pyridine-2,6-diamine], for which the Emax lay within 50 to 100%.

Regarding `CNc1nc2cnc(Nc3ccc(O)cc3)cc2n1Cc1ccc(OC)c(OC)c1` [Compound 663, 4-[[1-[(3,4-dimethoxyphenyl)methyl]-2-(methylamino)imidazo[4,5-c]pyridin-6-yl]amino]phenol], the Emax lay in the range of 50 to 100%.

As to `CS(=O)(=O)Nc1cccc(Nc2cc3[nH]c(-c4cccc(C(F)(F)F)c4)cc3cn2)c1` [Compound 5, N-[3-[[2-[3-(trifluoromethyl)phenyl]-1H-pyrrolo[3,2-c]pyridin-6-yl]amino]phenyl]methanesulfonamide], the Emax was 0 to 30%.

Take `OC1CCC(Nc2nccc3[nH]c(-c4cccc(OC(F)(F)F)c4)nc23)CC1` (centres unmarked) [Compound 443, 4-[[2-[3-(trifluoromethoxy)phenyl]-1H-imidazo[4,5-c]pyridin-4-yl]amino]cyclohexanol]: the Emax lay in the range of 30 to 50%.

Turning to `CN(C)C(=O)c1ccc(Nc2cc3[nH]c(-c4ccc(C(=O)N(C)C)cc4)cc3cn2)cc1` [Compound 40, 4-[6-[4-(dimethylcarbamoyl)anilino]-1H-pyrrolo[3,2-c]pyridin-2-yl]-N,N-dimethyl-benzamide], the Emax is greater than 100%.

For `Cn1c(-c2cccnc2)cc2c(Nc3ccc(F)cc3)nccc21` [Compound 242, N-(4-fluorophenyl)-1-methyl-2-(3-pyridyl)pyrrolo[3,2-c]pyridin-4-amine], the Emax lay within 0 to 30%.

With `Cn1cncc1-c1cc2cnc(Nc3cccc(Cl)c3)cc2[nH]1` [Compound 103, N-(3-chlorophenyl)-2-(3-methylimidazol-4-yl)-1H-pyrrolo[3,2-c]pyridin-6-amine], the Emax was in the range of 30 to 50%.

Consider `Cn1cc(-c2cc3cnc(Nc4ccc(F)cc4)cc3n2C)cn1` [Compound 138, N-(4-fluorophenyl)-1-methyl-2-(1-methylpyrazol-4-yl)pyrrolo[3,2-c]pyridin-6-amine], for which the Emax was 50 to 100%.

For the compound `Cc1cccc(Nc2cc3[nH]c(-c4ccccn4)cc3cn2)c1` [Compound 64, N-(m-tolyl)-2-(2-pyridyl)-1H-pyrrolo[3,2-c]pyridin-6-amine], the Emax lay within 50 to 100%.

For the compound `Sc1nc2cnccc2n1-c1ccccc1` [Compound 741, 1-phenylimidazo[4,5-c]pyridine-2-thiol], the Emax lay in the range of 50 to 100%.

Consider `CNc1nc2cnc(-c3ccc(F)c(Cl)c3)cc2n1-c1ccccc1` [Compound 784, 6-(3-chloro-4-fluoro-phenyl)-N-methyl-1-phenyl-imidazo[4,5-c]pyridin-2-amine], for which the Emax lay within 0 to 30%.

Consider `Cn1cncc1-c1cc2cnc(Nc3ccc(F)cc3)cc2[nH]1` [Compound 106, N-(4-fluorophenyl)-2-(3-methylimidazol-4-yl)-1H-pyrrolo[3,2-c]pyridin-6-amine], for which the Emax lay within 50 to 100%.

In the case of `Fc1cccc(Nc2cc3[nH]c(-c4ccccn4)cc3cn2)c1` [Compound 71, N-(3-fluorophenyl)-2-(2-pyridyl)-1H-pyrrolo[3,2-c]pyridin-6-amine], the Emax was in the range of 50 to 100%.

Turning to `CNc1nc2cnc(Nc3cccc(C)c3)cc2n1CCN1CCOCC1` [Compound 556, N2-methyl-1-(2-morpholinoethyl)-N6-(m-tolyl)imidazo[4,5-c]pyridine-2,6-diamine], the Emax lay in the range of 30 to 50%.

`COc1ccc(Nc2cc3c(cn2)cc(-c2ccc(C(=O)N(C)C)cc2)n3C)cc1O` [Compound 54, 4-[6-(3-hydroxy-4-methoxy-anilino)-1-methyl-pyrrolo[3,2-c]pyridin-2-yl]-N,N-dimethyl-benzamide]: the Emax lay within 50 to 100%.

Regarding `COc1ccccc1-c1cc2c(Nc3ccc(C(N)=O)cc3)nccc2[nH]1` [Compound 294, 4-[[2-(2-methoxyphenyl)-1H-pyrrolo[3,2-c]pyridin-4-yl]amino]benzamide], the Emax lay within 50 to 100%.

In the case of `CN(C)C(=O)c1ccc(Nc2cc3c(cn2)cc(-c2cnn(C)c2)n3C)cc1` [Compound 148, N,N-dimethyl-4-[[1-methyl-2-(1-methylpyrazol-4-yl)pyrrolo[3,2-c]pyridin-6-yl]amino]benzamide], the Emax is greater than 100%.

Consider `COc1ccc(Nc2cc3[nH]c(-c4cccc(F)c4)cc3cn2)cc1O` [Compound 11, 5-[[2-(3-fluorophenyl)-1H-pyrrolo[3,2-c]pyridin-6-yl]amino]-2-methoxy-phenol], for which the Emax is 30 to 50%.

For `NC(=O)c1ccc(Nc2nccc3[nH]c(-c4ccsc4)cc23)cc1` [Compound 250, 4-[[2-(3-thienyl)-1H-pyrrolo[3,2-c]pyridin-4-yl]amino]benzamide], the Emax fell in the range of 50 to 100%.

As for `CC(=O)Nc1cccc(Nc2cc3[nH]c(-c4cccc(F)c4)cc3cn2)c1` [Compound 15, N-[3-[[2-(3-fluorophenyl)-1H-pyrrolo[3,2-c]pyridin-6-yl]amino]phenyl]acetamide], the Emax was in the range of 30 to 50%.

Turning to `Cn1c(-c2ccsc2)cc2c(Nc3ccc(S(C)(=O)=O)cc3)nccc21` [Compound 289, 1-methyl-N-(4-methylsulfonylphenyl)-2-(3-thienyl)pyrrolo[3,2-c]pyridin-4-amine], the Emax lay in the range of 30 to 50%.

For `COc1ccc(CNc2nc3cnc(Nc4cc(OC)c(OC)c(OC)c4)cc3n2C)cc1OC` [Compound 599, N2-[(3,4-dimethoxyphenyl)methyl]-1-methyl-N6-(3,4,5-trimethoxyphenyl)imidazo[4,5-c]pyridine-2,6-diamine], the Emax is 50 to 100%.

For `Oc1cccc(Nc2cc3[nH]c(-c4ccccc4)cc3cn2)c1` [Compound 180, 3-[(2-phenyl-1H-pyrrolo[3,2-c]pyridin-6-yl)amino]phenol], the Emax fell in the range of 50 to 100%.

On to `COc1ccc(Nc2cc3[nH]c(-c4cccc(F)c4)cc3cn2)cn1` [Compound 8, 2-(3-fluorophenyl)-N-(6-methoxy-3-pyridyl)-1H-pyrrolo[3,2-c]pyridin-6-amine], for which the Emax is 30 to 50%.

With `CNc1nc2cnc(Nc3ccc(OC)cc3)cc2n1CCN1CCOCC1` [Compound 557, N6-(4-methoxyphenyl)-N2-methyl-1-(2-morpholinoethyl)imidazo[4,5-c]pyridine-2,6-diamine], the Emax fell in the range of 50 to 100%.

Turning to `COc1ccc(Nc2nccc3[nH]c(-c4cccc(OC)c4F)nc23)cc1OC` [Compound 469, N-(3,4-dimethoxyphenyl)-2-(2-fluoro-3-methoxy-phenyl)-1H-imidazo[4,5-c]pyridin-4-amine], the Emax was greater than 100%.

On to `Cn1c(Nc2ccccc2)nc2cnc(Nc3cccc(O)c3)cc21` [Compound 638, 3-[(2-anilino-1-methyl-imidazo[4,5-c]pyridin-6-yl)amino]phenol], for which the Emax was in the range of 50 to 100%.

Turning to `CC(=O)Nc1cccc(Nc2cc3c(cn2)cc(-c2cccnc2)n3C)c1` [Compound 96, N-[3-[[1-methyl-2-(3-pyridyl)pyrrolo[3,2-c]pyridin-6-yl]amino]phenyl]acetamide], the Emax is 50 to 100%.

In the case of `COc1ccc(-c2nc3c(Nc4ccc(OC)c(O)c4)nccc3[nH]2)cc1` [Compound 398, 2-methoxy-5-[[2-(4-methoxyphenyl)-1H-imidazo[4,5-c]pyridin-4-yl]amino]phenol], the Emax was greater than 100%.

Consider `COc1ccccc1-c1cc2c(Nc3ccncc3)nccc2[nH]1` [Compound 295, 2-(2-methoxyphenyl)-N-(4-pyridyl)-1H-pyrrolo[3,2-c]pyridin-4-amine], for which the Emax fell in the range of 50 to 100%.

In the case of `CNc1nc2cnc(Nc3cc(OC)cc(C(F)(F)F)c3)cc2n1Cc1ccco1` [Compound 767, 1-(2-furylmethyl)-N6-[3-methoxy-5-(trifluoromethyl)phenyl]-N2-methyl-imidazo[4,5-c]pyridine-2,6-diamine], the Emax is 0 to 30%.

On to `CC(=O)Nc1ccc(Nc2cc3c(cn2)cc(-c2cnn(C)c2)n3C)cc1` [Compound 126, N-[4-[[1-methyl-2-(1-methylpyrazol-4-yl)pyrrolo[3,2-c]pyridin-6-yl]amino]phenyl]acetamide], for which the Emax lay in the range of 50 to 100%.

For the compound `CNc1nc2cnc(-c3cccs3)cc2n1-c1cccc(F)c1` [Compound 687, 1-(3-fluorophenyl)-N-methyl-6-(2-thienyl)imidazo[4,5-c]pyridin-2-amine], the Emax lay within 50 to 100%.
